According to publication PMC3172300, “Modulation of Catalytic Activity in Multi-Domain Protein Tyrosine Phosphatases” (PLoS ONE, 2011):
“And” between values parts separate entries of the source, which are not always exact repeats. Equal values may be shown once. Read-outs that look alike come from different tables or passages of the source. Square brackets hold non-standard residues; d marks the D form. Peptide text beside a SMILES is read from it. pY = N[C@@H](Cc1ccc(OP(=O)(O)O)cc1)C(=O)O

Legend:
DLAR D1HSS D2 = biological target: T1, DLAR D1HSS D2 (Drosophila melanogaster, UniProt P16621, C1670S); assay: Surface Plasmon Resonance peptide binding, DLAR D1HSS D2; conditions: two-site model, read-out: ka
T1 construct: DLAR 1448-2029; His tag (pET-15b or pET-22b); made in house; host or cells: E. coli BL21(DE3)
T1 sequence (P16621 1448-2029 C1670S): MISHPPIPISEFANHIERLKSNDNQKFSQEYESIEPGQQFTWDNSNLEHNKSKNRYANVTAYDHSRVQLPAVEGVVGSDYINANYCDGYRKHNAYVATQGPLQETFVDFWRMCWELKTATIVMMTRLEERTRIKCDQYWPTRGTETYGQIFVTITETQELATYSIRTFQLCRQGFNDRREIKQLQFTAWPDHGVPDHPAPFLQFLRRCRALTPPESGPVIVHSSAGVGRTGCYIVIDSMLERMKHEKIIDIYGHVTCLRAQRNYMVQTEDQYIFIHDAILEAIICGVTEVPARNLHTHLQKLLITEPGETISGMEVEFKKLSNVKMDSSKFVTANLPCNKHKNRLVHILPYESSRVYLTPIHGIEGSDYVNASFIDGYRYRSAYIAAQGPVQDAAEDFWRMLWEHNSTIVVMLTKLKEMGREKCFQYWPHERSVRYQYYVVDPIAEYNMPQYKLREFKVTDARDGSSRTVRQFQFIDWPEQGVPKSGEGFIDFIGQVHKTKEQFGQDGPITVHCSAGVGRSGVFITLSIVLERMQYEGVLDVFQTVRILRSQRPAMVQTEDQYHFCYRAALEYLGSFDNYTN
Description: The binding of phosphotyrosine peptides to the PTP domains was studied by Surface Plasmon Resonance on a Biacore-2000 instrument (BIAcore, AB). All experiments were conducted at 25°C. DLAR PTP domains were immobilized onto carboxylated dextran CM5 chips (BIAcore AB) using the standard amine coupling procedure as recommended by the manufacturer. Binding and kinetic assays were performed in 10 mM HEPES, pH 8.0, 150 mM NaCl, 10 mM DTT and 3 mM EDTA at a flow rate of 5 µL/min. The peptides were used at concentrations ranging from 50–700 µM. Dissociation was initiated by replacing the analyte with buffer. The association and dissociation curves were monitored for 600 sec. Sensograms were analyzed with BIA-evaluation software version 2 (BIAcore AB). Sensograms for DLAR D1D2, DLAR D1HSSD2 and DLAR D1D2HSS were fitted to two-site binding equations. DLAR D1 and DLAR D2 sensograms were fitted using a single-site binding model.

[1] = system: D958C mutant of the D2 domain of PTP99A; assay: Phosphatase assay using pNPP, PTP99A D2 D958C mutant; format: biochemical, Drosophila melanogaster; conditions: D958C point mutant
Description: (§1) Phosphatase activity of the recombinant PTP domains was determined by using para-Nitrophenylphosphate (pNPP), a small molecule generic substrate, as well as phosphotyrosine containing peptides. The pNPP assay was performed as reported previously, with a modification in the buffer composition (25 mM Citrate, Glycine and HEPES (CGH), pH 6.5, 100 mM NaCl and 2 mM DTT). Phosphatase activity with the phosphotyrosine peptides was ascertained by the malachite green reaction as described for PTPs previously. Briefly, the reaction mixture comprised of 0.01 µM protein incubated with increasing concentrations of different peptides in 25 mM citrate buffer pH 6.0, 100 mM NaCl and 2 mM DTT for 15 min at 25°C. The reaction was stopped by the addition of the Biomol Green reagent (Enzo Life Sciences) and the colour developed after 20 min was quantified at 650 nm. For all the assays, kinetic constants for the steady state catalysis were obtained by fitting the reaction curves to the Michaelis-Menten equation using the nonlinear regression module of Sigma plot software (Systat Software, Inc.).
Supplementary file pone.0024766.s005.tif: Figure S5 Characterization of the D958C mutant of the D2 domain of PTP99A. A: Size exclusion profile of wild-type and D958C mutant of the D2 domain of PTP99A. B: Circular Dichroism (CD) spectra of the wild type and D958C mutant. […]

PTP99A D2 = biological target: T2, PTP99A D2 (Drosophila melanogaster, UniProt P35832); assay: Phosphatase assay using pNPP, PTP99A D2; format: biochemical; conditions: CGH buffer pH 6.5
T2 sequence (P35832 740-1050): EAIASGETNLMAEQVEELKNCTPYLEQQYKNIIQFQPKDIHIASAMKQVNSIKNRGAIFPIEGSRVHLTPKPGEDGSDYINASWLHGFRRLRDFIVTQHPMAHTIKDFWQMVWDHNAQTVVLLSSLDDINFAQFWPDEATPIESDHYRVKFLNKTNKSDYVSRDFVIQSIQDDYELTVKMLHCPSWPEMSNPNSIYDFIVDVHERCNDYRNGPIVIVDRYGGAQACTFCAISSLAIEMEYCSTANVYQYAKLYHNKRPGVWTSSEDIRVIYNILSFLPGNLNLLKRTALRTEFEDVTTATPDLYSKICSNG
Description: as §1

DLAR D1 = biological target: T3, DLAR D1 (Drosophila melanogaster, UniProt P16621); assay: Phosphatase assay using pNPP, DLAR D1; format: biochemical; conditions: CGH buffer pH 6.5, 100 mM NaCl, 2 mM DTT
T3 construct: DLAR 1448-1746; His tag (pET-15b or pET-22b); made in house; host or cells: E. coli BL21(DE3)
T3 sequence (P16621 1448-1746): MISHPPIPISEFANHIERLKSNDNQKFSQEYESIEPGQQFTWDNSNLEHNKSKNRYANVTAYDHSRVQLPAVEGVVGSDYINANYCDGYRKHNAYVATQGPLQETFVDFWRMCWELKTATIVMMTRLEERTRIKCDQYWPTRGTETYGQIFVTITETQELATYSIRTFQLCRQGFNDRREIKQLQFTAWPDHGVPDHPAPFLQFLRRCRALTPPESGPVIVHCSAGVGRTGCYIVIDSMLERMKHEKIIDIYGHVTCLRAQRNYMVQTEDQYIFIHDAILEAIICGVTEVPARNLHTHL
Description: as §1
The tandem PTP domains of PTP99A (PTP99A D1D2) and DLAR (DLAR D1D2) , the individual PTP domains (D1 and D2) as well as the active site mutants were expressed in E. coli and were purified using the protocols described earlier (Figure 1a, Figure S1a, b & c). The biochemical characterization and catalytic activity measurements were performed using pNPP as a substrate. […] Thus the D2 domain appears to have a regulatory role in both RPTPs- decreasing the catalytic activity in the case of DLAR while increasing the catalytic activity in the case of PTP99A (Figure 1b).

| Compound | kon (DLAR D1HSS D2; pH 8, SPR Biacore-2000, 25°C, 10 mM HEPES pH 8.0, 150 mM NaCl, 10 mM DTT, 3 mM EDTA, peptides 50–700 µM, first binding site) | kon (DLAR D1HSS D2; pH 8, SPR, 25°C, pH 8.0, second binding site) | phosphatase activity [1] | PTPase activity (PTP99A D2) | Kcat (DLAR D1) | Kcat/Km (DLAR D1) | Vmax (DLAR D1; Michaelis-Menten fit) |
| --- | --- | --- | --- | --- | --- | --- | --- |
| CC(C)C[C@H](NC(=O)[C@H](C)NC(=O)CNC(=O)[C@H](Cc1ccc(OP(=O)(O)O)cc1)NC(=O)[C@H](CC(=O)O)NC(=O)[C@@H]1CCCN1C(=O)[C@H](CCC(=O)O)NC(=O)[C@H](C)NC(=O)[C@@H](N)[C@@H](C)O)C(=O)N[C@@H](Cc1ccc(O)cc1)C(=O)N[C@@H](CCC(=O)O)C(=O)O [Cuticle peptide] (H-TAEPD[pY]GALYE-OH) | 74.7 ± 2.41 M⁻¹ s⁻¹ | 28800 ± 8e+06 M⁻¹ s⁻¹ |  |  |  |  |  |
| O=[N+]([O-])c1ccc(OP(=O)(O)O)cc1 [pNPP, para-Nitrophenylphosphate] |  |  | catalytically inactive | no detectable activity | 16.10 ± 0.27 s⁻¹ | 16.03 ± 0.11 x 10^3 sec^-1M^-1 | 20.56 µmol/min/mg and 20.56 ± 0.34 µmol/min/mg |
